Test results from article PMC12064818, “A general assay platform to study protein pharmacology using ligand-dependent structural dynamics” (Nature Communications, 2025).

Key:
FLuc-C-HiBiT = target: T1, FLuc-C-HiBiT (Photinus pyralis, UniProt P08659); assay: biochemical; conditions: enzyme activity, 10 uM ATP; read-out: IC50 or SDR50 (mM) / FLuc E
T1 construct: firefly luciferase with C-terminal HiBiT tag, E. coli expressed

B. malayi iPGM-C-HiBiT [1] = target: T2, B. malayi iPGM-C-HiBiT (Brugia malayi, UniProt Q4VWF8); assay: biochemical
T2 sequence (Q4VWF8 2-515): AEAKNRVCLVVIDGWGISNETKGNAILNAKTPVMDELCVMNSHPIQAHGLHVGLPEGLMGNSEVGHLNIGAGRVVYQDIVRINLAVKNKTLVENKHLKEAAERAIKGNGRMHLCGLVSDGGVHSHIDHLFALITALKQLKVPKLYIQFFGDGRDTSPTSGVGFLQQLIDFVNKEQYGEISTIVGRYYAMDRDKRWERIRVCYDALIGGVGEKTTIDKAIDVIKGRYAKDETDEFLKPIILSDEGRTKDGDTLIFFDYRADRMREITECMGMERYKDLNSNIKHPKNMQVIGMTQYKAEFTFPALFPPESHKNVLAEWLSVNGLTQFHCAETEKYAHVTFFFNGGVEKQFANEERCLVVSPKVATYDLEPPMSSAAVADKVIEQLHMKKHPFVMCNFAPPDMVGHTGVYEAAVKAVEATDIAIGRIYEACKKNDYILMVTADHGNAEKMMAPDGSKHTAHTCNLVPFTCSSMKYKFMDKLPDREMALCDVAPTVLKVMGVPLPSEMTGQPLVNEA

B. malayi iPGM-C-HiBiT [2] = target: T2, B. malayi iPGM-C-HiBiT; assay: iPGM coupled-enzyme assay, B. malayi iPGM-C-HiBiT; type: biochemical; design: cDNA, containing Ala2-Glu515 and the 6xHis tag; His6 (C); made in house; host or cells: E. coli; conditions: B. malayi iPGM-C-HiBiT Std 5 nM; ligand […] Std
Experimental: The enzyme activity of C. elegans or B. malayi iPGM-C-HiBiT was measured using the functional coupled-enzyme luminescence end-point output assay for iPGM as previously described[16],[41],[68]. Briefly, the indicated concentration of 4 μL of iPGM-C-HiBiT was dispensed into 1536-well white, high solid base, medium bind plates in a pH 8.0 iPGM assay buffer (30 mM Tris-HCl, 5 mM magnesium sulfate, 20 mM potassium chloride and 0.08% BSA) with the BioRaptr 2. Compounds and controls were added to each plate with a pintool as described in Supplementary Data 8. Enzymes were incubated with peptide for > 20 min at ambient temperature, protected from light. […] Enzyme was at 5 nM final concentration for the standard assay with an estimated KM 3-phosphoglycerate (3PG) substrate concentration of 400 μM. Plates were incubated at ambient temperature for 10 min, protected from light, then measured by a ViewLux plate reader. […] See Supplementary Table 6 for additional details.
Supplementary Table 6. Protocol for Co- factor independent phosphoglycerate mutase (iPGM) coupled-enzyme assay
Supplementary Table 6: Protocol for Co-factor independent phosphoglycerate m utase (iPGM) coupled- enzym e assay […]
No enzym e control (colum n 1) and enzym e solutions (5 nM Bm iPGM-C-HiBiT or Ce iPGM-1 Reagent 4 µLC-HiBiT dialyzed against Zn/Mn final assay concentration) in PGM enzym e buffer; white/solid bottom , m edium bind, high base plates (Greiner), dispensed with BioRaptr 2 […]
in 8-pt 1:6 titration series in duplicate); com pounds transferred to respective colum ns with […]
Test com pounds: m acrocyclic peptides at 5 m M stock concentration in 16-pt, 1:3 titration […]
transferred to respective colum ns with Pintool
3 Incubation 20 m inIncubate enzym e + com pounds at am bient tem p for 20 m in, protected from light 4 Reagent 2 µLSubstrate solution; 0.4 m M final concentration 3PG in coupled-enzym e substrate buffer; dispensed with BioRaptr 2
5 Incubation 5 m inAm bient tem perature, protected from light
6 Reagent 4 µLKinase-Glo Plus reagent (Prom ega) prepared according to m anufacturer’s protocol;
7 Incubation 10 m inRoom tem perature, protected from light
8 Detector ViewLuxRead plate lum inescence (Exposure = 1 sec; Gain = Medium; Speed = Slow; Binning = 2X) […]
in 20% glycerol); Bm iPGM-C-HiBiT enzym e 10 µM stock solution in 20% glycerol.
Coupled-enzym e substrate solution: 30 m M Tris-HCl, pH 8.0; 5 m M MgSO4; 20 m M KCl; 9 m M ADP (3 m M final); 0.1 4 units/µl enolase (Millipore Sigm a, Cat# E6126); 0.15 units/µl pyruvate kinase (from rabbit m uscle, Millipore Sigm a, Cat #

T1 sequence (P08659 whole entry, looked up): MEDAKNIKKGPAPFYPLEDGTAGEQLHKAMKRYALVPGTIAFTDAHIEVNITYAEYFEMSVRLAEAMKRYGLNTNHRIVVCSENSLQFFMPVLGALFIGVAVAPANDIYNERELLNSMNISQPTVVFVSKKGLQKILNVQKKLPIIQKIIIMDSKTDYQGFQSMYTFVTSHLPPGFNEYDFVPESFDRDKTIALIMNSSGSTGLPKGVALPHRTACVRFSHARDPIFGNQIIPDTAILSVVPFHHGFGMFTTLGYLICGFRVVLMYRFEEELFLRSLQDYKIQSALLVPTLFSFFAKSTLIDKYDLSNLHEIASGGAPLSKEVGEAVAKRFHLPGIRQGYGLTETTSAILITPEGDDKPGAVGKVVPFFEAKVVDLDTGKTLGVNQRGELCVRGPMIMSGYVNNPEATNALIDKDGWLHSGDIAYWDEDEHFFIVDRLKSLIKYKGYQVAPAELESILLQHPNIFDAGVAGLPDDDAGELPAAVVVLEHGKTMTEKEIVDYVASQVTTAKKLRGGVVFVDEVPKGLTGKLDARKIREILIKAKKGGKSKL

Row | Compound | IC50 (FLuc-C-HiBiT) | EC50 (B. malayi iPGM-C-HiBiT [1]) | Standard assay statistics Ave RLU (B. malayi iPGM-C-HiBiT [2]) | Standard assay statistics S:B (B. malayi iPGM-C-HiBiT [2]) | Standard assay statistics S:N (B. malayi iPGM-C-HiBiT [2]) | Standard assay statistics Z’ (B. malayi iPGM-C-HiBiT [2])
1 | CC(CNC(=O)C1CCN(C(=O)c2ncn3c2COC(c2ccccc2)C3)CC1)c1ccccc1 (stereo not drawn) [compound 00449795] | 0.00248 mM |  |  |  |  | 
2 | CC(C)C[C@H](NC(=O)[C@H](Cc1ccc(O)cc1)NC(=O)[C@@H]1CSCC(=O)N[C@H](Cc2ccc(O)cc2)C(=O)N[C@@H](CC(=O)O)C(=O)N[C@@H](Cc2ccc(O)cc2)C(=O)N2CCC[C@H]2C(=O)NCC(=O)N[C@@H](CC(=O)O)C(=O)N[C@@H](Cc2ccc(O)cc2)C(=O)N1)C(=O)N[C@@H](Cc1ccc(O)cc1)C(=O)NCC(=O)N[C@H](C(=O)N[C@@H](CS)C(=O)NCC(N)=O)[C@@H](C)O [Ce-2] |  | 0.0407 µM | 4115.8 RLU | 1.7 | -6.9 | 0.521
